Laboratory results taken from PubChem BioAssay (NCI).
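Tested at 5 concentrations; 48 h exposure; 96-well plates; endpoints linearly interpolated, else capped at highest concentration. GI50 = concentration required for 50% inhibition of growth. Definition used: TGI = concentration required for complete inhibition of growth.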

Legend:
Experiment in all cases: NCI anticancer screen, dose series, 48 h
BT-549 breast = tested on: BT-549 breast
EKVX NSCLC = tested on: EKVX NSCLC
IGROV1 ovarian = tested on: IGROV1 ovarian
MCF7 breast = tested on: MCF7 breast
RPMI-8226 leukemia = tested on: RPMI-8226 leukemia
RXF 393 renal = tested on: RXF 393 renal
SK-MEL-2 melanoma = tested on: SK-MEL-2 melanoma
TK-10 renal = tested on: TK-10 renal
U251 CNS = tested on: U251 CNS
786-0 renal = tested on: 786-0 renal

With CCOC(=O)NC(=S)N(CC(=O)c1cc(OC)c(OC)c(OC)c1)c1ccc(Cl)cc1 the GI50 (BT-549 breast) was 41.6 µM, the TGI (BT-549 breast) was greater than 100 µM and the GI50 (EKVX NSCLC) was 62.4 µM. The TGI (EKVX NSCLC) was greater than 100 µM, the GI50 (IGROV1 ovarian) was 70.1 µM and the TGI (IGROV1 ovarian) was greater than 100 µM. For the same compound, the GI50 (MCF7 breast) was greater than 100 µM, the TGI (MCF7 breast) was greater than 100 µM and the GI50 (RPMI-8226 leukemia) was 30.2 µM. For the same compound, the TGI (RPMI-8226 leukemia) was greater than 100 µM, the GI50 (RXF 393 renal) was 17.2 µM and the TGI (RXF 393 renal) was 89.7 µM. It also gave a GI50 (SK-MEL-2 melanoma) of 47.4 µM, a TGI (SK-MEL-2 melanoma) greater than 100 µM and a GI50 (TK-10 renal) of 36.9 µM. For the same compound, the TGI (TK-10 renal) was greater than 100 µM, the GI50 (U251 CNS) was 99.7 µM and the TGI (U251 CNS) was greater than 100 µM.

COC(=N)C1(C#N)NC(c2ccsc2)C(C#N)(C#N)NC1c1ccsc1 (stereo not given) was tested, and the TGI (786-0 renal) was greater than 100 µM, the TGI (BT-549 breast) was greater than 100 µM and the TGI (EKVX NSCLC) was greater than 100 µM. For the same compound, the TGI (IGROV1 ovarian) was greater than 100 µM, the TGI (MCF7 breast) was greater than 100 µM and the TGI (RPMI-8226 leukemia) was greater than 100 µM. For the same compound, the TGI (RXF 393 renal) was greater than 100 µM, the TGI (SK-MEL-2 melanoma) was greater than 100 µM and the TGI (TK-10 renal) was greater than 100 µM. For the same compound, the TGI (U251 CNS) was greater than 100 µM.

CCC1(c2ccc(N3C(=O)c4cccc5cc([N+](=O)[O-])cc(c45)C3=O)cc2)CCC(=O)NC1=O (stereo not given) gave a TGI (786-0 renal) of 21.6 µM, a TGI (BT-549 breast) of 38.6 µM and a TGI (EKVX NSCLC) greater than 70.5 µM. It also gave a TGI (IGROV1 ovarian) of 38.6 µM, a TGI (MCF7 breast) greater than 100 µM and a TGI (RPMI-8226 leukemia) greater than 100 µM. For the same compound, the TGI (RXF 393 renal) was 20.4 µM, the TGI (SK-MEL-2 melanoma) was greater than 100 µM and the TGI (TK-10 renal) was greater than 79.1 µM. The TGI (U251 CNS) was 23.8 µM.

For COc1cc2c(cc1O)C1Cc3ccc(OC)c(O)c3C[N+]1(C)CC2 (stereo not given), the TGI (786-0 renal) was greater than 100 µM, the TGI (BT-549 breast) was greater than 100 µM and the TGI (EKVX NSCLC) was greater than 100 µM. For the same compound, the TGI (IGROV1 ovarian) was greater than 100 µM, the TGI (MCF7 breast) was greater than 100 µM and the TGI (RPMI-8226 leukemia) was greater than 100 µM. It also gave a TGI (RXF 393 renal) greater than 100 µM, a TGI (SK-MEL-2 melanoma) greater than 100 µM and a TGI (TK-10 renal) greater than 100 µM. For the same compound, the TGI (U251 CNS) was greater than 100 µM.

With CC(C)(C)C(=O)Nc1c(C=O)ccc2[nH]cnc12 the TGI (786-0 renal) was greater than 100 µM, the TGI (BT-549 breast) was greater than 100 µM and the TGI (EKVX NSCLC) was greater than 100 µM. The TGI (IGROV1 ovarian) was greater than 100 µM, the TGI (MCF7 breast) was greater than 100 µM and the TGI (RPMI-8226 leukemia) was greater than 100 µM. It also gave a TGI (RXF 393 renal) greater than 100 µM, a TGI (SK-MEL-2 melanoma) greater than 100 µM and a TGI (TK-10 renal) greater than 100 µM. The TGI (U251 CNS) was greater than 100 µM.

For COc1cc2c(/C=C3/C(=O)Nc4ccccc43)c(Cl)n(Cc3ccc(Cl)cc3)c2cc1C, the TGI (786-0 renal) was 1.4 µM, the TGI (BT-549 breast) was 1.92 µM and the TGI (EKVX NSCLC) was 44.9 µM. The TGI (IGROV1 ovarian) was 16 µM, the TGI (MCF7 breast) was 31.8 µM and the TGI (RPMI-8226 leukemia) was 0.925 µM. The TGI (RXF 393 renal) was 4.85 µM, the TGI (SK-MEL-2 melanoma) was 17.3 µM and the TGI (TK-10 renal) was 7.67 µM. It also gave a TGI (U251 CNS) of 1.23 µM.

N#Cc1c(NC(=S)Nc2ccc(Cl)cc2)sc2c1CCN(N1CCc3c(sc(NC(=S)Nc4ccc(Cl)cc4)c3C#N)C1)C2 gave a TGI (786-0 renal) of 58.8 µM, a TGI (BT-549 breast) greater than 100 µM and a TGI (EKVX NSCLC) greater than 100 µM. The TGI (IGROV1 ovarian) was 47.8 µM, the TGI (MCF7 breast) was greater than 100 µM and the TGI (RPMI-8226 leukemia) was greater than 100 µM. For the same compound, the TGI (RXF 393 renal) was 78.3 µM, the TGI (SK-MEL-2 melanoma) was 50.2 µM and the TGI (TK-10 renal) was greater than 100 µM. The TGI (U251 CNS) was 86.2 µM.

CCOC(=O)c1c(-c2ccc(OC)cc2)ccn1C was tested, and the TGI (786-0 renal) was greater than 10 µM, the TGI (BT-549 breast) was greater than 10 µM and the TGI (EKVX NSCLC) was greater than 10 µM. The TGI (IGROV1 ovarian) was greater than 10 µM, the TGI (MCF7 breast) was greater than 10 µM and the TGI (RXF 393 renal) was greater than 10 µM. For the same compound, the TGI (SK-MEL-2 melanoma) was greater than 10 µM, the TGI (TK-10 renal) was greater than 10 µM and the TGI (U251 CNS) was greater than 10 µM.

Cc1nc2c(Br)cc(Br)cc2c(=O)n1-c1ccccc1NC1OC(CO)C(O)C(O)C1O (stereo not given) gave a TGI (786-0 renal) greater than 100 µM, a TGI (BT-549 breast) greater than 100 µM and a TGI (EKVX NSCLC) greater than 100 µM. For the same compound, the TGI (IGROV1 ovarian) was greater than 100 µM, the TGI (MCF7 breast) was greater than 100 µM and the TGI (RPMI-8226 leukemia) was greater than 100 µM. For the same compound, the TGI (RXF 393 renal) was greater than 100 µM, the TGI (SK-MEL-2 melanoma) was greater than 100 µM and the TGI (TK-10 renal) was greater than 100 µM. For the same compound, the TGI (U251 CNS) was greater than 100 µM.

Work on Cc1nc(NC(C)(CO)CO)nc(N/N=C/c2ccc(Cl)cc2)c1C(=O)Nc1ccc(Cl)cc1 yielded a TGI (786-0 renal) greater than 100 µM, a TGI (BT-549 breast) greater than 100 µM and a TGI (EKVX NSCLC) greater than 100 µM. For the same compound, the TGI (IGROV1 ovarian) was greater than 100 µM, the TGI (MCF7 breast) was greater than 100 µM and the TGI (RPMI-8226 leukemia) was greater than 100 µM. The TGI (RXF 393 renal) was greater than 100 µM, the TGI (SK-MEL-2 melanoma) was greater than 100 µM and the TGI (TK-10 renal) was greater than 100 µM. The TGI (U251 CNS) was greater than 100 µM.

Cn1/c(=N\N=C2\C=C3CCCCC3(C)CC2)sc2ccccc21 (stereo not given) showed a TGI (786-0 renal) greater than 100 µM, a TGI (BT-549 breast) greater than 100 µM and a TGI (EKVX NSCLC) greater than 100 µM. It also gave a TGI (IGROV1 ovarian) greater than 100 µM, a TGI (MCF7 breast) greater than 100 µM and a TGI (RXF 393 renal) greater than 100 µM. The TGI (SK-MEL-2 melanoma) was greater than 100 µM, the TGI (TK-10 renal) was greater than 100 µM and the TGI (U251 CNS) was greater than 100 µM.

C/C(=N\Nc1nc2ccccc2s1)c1ccncn1 gave a TGI (786-0 renal) greater than 72.4 µM, a TGI (BT-549 breast) of 21.4 µM and a TGI (EKVX NSCLC) of 10.2 µM. The TGI (IGROV1 ovarian) was 4.39 µM, the TGI (MCF7 breast) was greater than 100 µM and the TGI (RPMI-8226 leukemia) was greater than 26 µM. For the same compound, the TGI (RXF 393 renal) was 24.7 µM, the TGI (SK-MEL-2 melanoma) was 31.8 µM and the TGI (U251 CNS) was greater than 100 µM.

For COC(=O)c1sc(=O)sc1SCc1cccc(CSc2sc(=O)sc2C(=O)OC)c1, the TGI (786-0 renal) was 31.4 µM, the TGI (BT-549 breast) was greater than 100 µM and the TGI (EKVX NSCLC) was greater than 100 µM. The TGI (IGROV1 ovarian) was greater than 100 µM, the TGI (MCF7 breast) was greater than 100 µM and the TGI (RXF 393 renal) was 73.2 µM. For the same compound, the TGI (SK-MEL-2 melanoma) was greater than 100 µM, the TGI (TK-10 renal) was 57.5 µM and the TGI (U251 CNS) was 34.3 µM.

With CCC1(O)CC(CCN(Cc2ccccc2)C(=O)OCc2ccccc2)C(OCc2ccccc2)C1O (stereo not given) the TGI (786-0 renal) was 39.3 µM, the TGI (BT-549 breast) was 33.3 µM and the TGI (EKVX NSCLC) was 30.9 µM. It also gave a TGI (IGROV1 ovarian) of 37.4 µM, a TGI (MCF7 breast) of 28.8 µM and a TGI (RXF 393 renal) of 41.9 µM. The TGI (SK-MEL-2 melanoma) was 28.7 µM, the TGI (TK-10 renal) was 36.8 µM and the TGI (U251 CNS) was greater than 100 µM.

Compound CCOC(=O)c1cc(-c2ccc(OC)cc2)c([N+](=O)[O-])[nH]1 has a TGI (786-0 renal) greater than 10 µM, a TGI (BT-549 breast) greater than 10 µM and a TGI (EKVX NSCLC) greater than 10 µM. It also gave a TGI (IGROV1 ovarian) greater than 10 µM, a TGI (MCF7 breast) greater than 10 µM and a TGI (RXF 393 renal) greater than 10 µM. It also gave a TGI (SK-MEL-2 melanoma) greater than 10 µM, a TGI (TK-10 renal) greater than 10 µM and a TGI (U251 CNS) greater than 10 µM.

O=C1c2cc3c(cc2-c2c1c1cc(F)c(F)cc1c(=O)n2CCCn1ccnc1)OCO3 was tested, and the GI50 (BT-549 breast) was 0.0502 µM, the TGI (BT-549 breast) was 49.5 µM and the GI50 (EKVX NSCLC) was 0.687 µM. The TGI (EKVX NSCLC) was greater than 100 µM, the GI50 (IGROV1 ovarian) was 0.14 µM and the TGI (IGROV1 ovarian) was greater than 100 µM. The GI50 (MCF7 breast) was less than 0.01 µM, the TGI (MCF7 breast) was 1.39 µM and the GI50 (RPMI-8226 leukemia) was 0.0253 µM. For the same compound, the TGI (RPMI-8226 leukemia) was 0.673 µM, the GI50 (RXF 393 renal) was 0.036 µM and the TGI (RXF 393 renal) was 0.169 µM. The GI50 (SK-MEL-2 melanoma) was 0.256 µM, the TGI (SK-MEL-2 melanoma) was 0.93 µM and the GI50 (TK-10 renal) was 0.25 µM. It also gave a TGI (TK-10 renal) greater than 100 µM, a GI50 (U251 CNS) of less than 0.01 µM and a TGI (U251 CNS) of 10.2 µM.
